According to paper PMC7377239, “Cardiovascular Effects of Polychlorinated Biphenyls and Their Major Metabolites” (Environmental Health Perspectives, 2020):
Like-named read-outs stand apart in the source and are kept apart here.

System: iCell cardiomyocytes (human iPSC-derived cardiomyocytes)
Assay: High-content imaging of cytotoxicity and mitochondrial integrity in iPSC-CMs
Format: cell-based
Details: Homo sapiens; for viability at 0.01 µM / activity at 0.01 µM / viability at 0.1 µM / activity at 0.1 µM / viability at 1 µM / activity at 1 µM / viability at 10 µM / activity at 10 µM / viability at 100 µM / activity at 100 µM: Cardiomyocyte, 0.00 µM = 100.00; for viability at 0.1 µM / activity at 0.1 µM: 0.10 µM; for minimal effective concentration: iPSC-CM
In short: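 Human iPSC-derived cardiomyocytes were seeded on gelatin-coated 384-well plates at 5,000 cells per well and maintained for 12 d. Test chemicals were added as 10μL of 5× solutions to final concentrations of 0.01 to 100μM. Cells were stained with Hoechst 33342 and MitoTracker™ Orange, fixed in formaldehyde, and imaged by confocal high-content microscopy at 10× magnification.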

`COc1ccc(-c2cccc(Cl)c2)cc1Cl` [4-OMe PCB11] showed a viability at 0.01 µM (1.5 h, read-out: cm.cam.90min) of 89.1%, an activity at 0.01 µM (1.5 h, read-out: cm.mii.90min) of 112% and an activity at 0.01 µM (1.5 h, read-out: cm.mito.90min) of 87.5%. The viability at 0.01 µM (1.5 h, read-out: cm.tc.90min) was 89.6%, the viability at 0.1 µM (1.5 h, read-out: cm.cam.90min) was 101% and the activity at 0.1 µM (1.5 h, read-out: cm.mii.90min) was 93.8%. The activity at 0.1 µM (1.5 h, read-out: cm.mito.90min) was 101%, the viability at 0.1 µM (1.5 h, read-out: cm.tc.90min) was 101% and the viability at 1 µM (1.5 h, read-out: cm.cam.90min) was 96.5%. The activity at 1 µM (1.5 h, read-out: cm.mii.90min) was 94.7%, the activity at 1 µM (1.5 h, read-out: cm.mito.90min) was 96.6% and the viability at 1 µM (1.5 h, read-out: cm.tc.90min) was 96.7%. For the same compound, the viability at 10 µM (1.5 h, read-out: cm.cam.90min) was 99.9%, the activity at 10 µM (1.5 h, read-out: cm.mii.90min) was 109% and the activity at 10 µM (1.5 h, read-out: cm.mito.90min) was 100%. For the same compound, the viability at 10 µM (1.5 h, read-out: cm.tc.90min) was 100%, the viability at 100 µM (1.5 h, read-out: cm.cam.90min) was 3.43% and the activity at 100 µM (1.5 h, read-out: cm.mii.90min) was 74.3%. For the same compound, the activity at 100 µM (1.5 h, read-out: cm.mito.90min) was 2.03%, the viability at 100 µM (1.5 h, read-out: cm.tc.90min) was 3.76% and the viability at 0.01 µM (24 h, read-out: cm.cam.24hrs) was 95.2%. The activity at 0.01 µM (24 h, read-out: cm.mii.24hrs) was 95.8%, the activity at 0.01 µM (24 h, read-out: cm.mito.24hrs) was 97.8% and the viability at 0.01 µM (24 h, read-out: cm.tc.24hrs) was 97.4%. The viability at 0.1 µM (24 h, read-out: cm.cam.24hrs) was 102%, the activity at 0.1 µM (24 h, read-out: cm.mii.24hrs) was 88.6% and the activity at 0.1 µM (24 h, read-out: cm.mito.24hrs) was 104%. The viability at 0.1 µM (24 h, read-out: cm.tc.24hrs) was 103%, the viability at 1 µM (24 h, read-out: cm.cam.24hrs) was 95.3% and the activity at 1 µM (24 h, read-out: cm.mii.24hrs) was 107%. It also gave an activity at 1 µM (24 h, read-out: cm.mito.24hrs) of 93.6%, a viability at 1 µM (24 h, read-out: cm.tc.24hrs) of 95.6% and a viability at 10 µM (24 h, read-out: cm.cam.24hrs) of 102%. The activity at 10 µM (24 h, read-out: cm.mii.24hrs) was 85.8%, the activity at 10 µM (24 h, read-out: cm.mito.24hrs) was 103% and the viability at 10 µM (24 h, read-out: cm.tc.24hrs) was 103%. It also gave a viability at 100 µM (24 h, read-out: cm.cam.24hrs) of 2.29%, an activity at 100 µM (24 h, read-out: cm.mii.24hrs) of 34.1% and an activity at 100 µM (24 h, read-out: cm.mito.24hrs) of 0.46%. The viability at 100 µM (24 h, read-out: cm.tc.24hrs) was 2.4%, the minimal effective concentration (1.5 h, read-out: cm.cam.90min POD) was 33.8 µM and the minimal effective concentration (1.5 h, read-out: cm.mii.90min POD) was 62.2 µM. The minimal effective concentration (1.5 h, read-out: cm.mito.90min POD) was 29.1 µM, the minimal effective concentration (1.5 h, read-out: cm.tc.90min POD) was 28.6 µM and the minimal effective concentration (24 h, read-out: cm.cam.24hrs POD) was 37.2 µM. For the same compound, the minimal effective concentration (24 h, read-out: cm.mii.24hrs POD) was 10.8 µM, the minimal effective concentration (24 h, read-out: cm.mito.24hrs POD) was 31.1 µM and the minimal effective concentration (24 h, read-out: cm.tc.24hrs POD) was 33.4 µM.
